Results from patent publication US8541585B2, “N-acyl cyclic amine derivative or pharmaceutically acceptable salt thereof” (Dainippon Sumitomo Pharma Co., Ltd., priority 2010, dated 2013).

Assays:
human D2L receptor = human D2L receptor (Homo sapiens, UniProt P14416); test: Dopamine D2L receptor binding assay ([3H]-spiperone); conditions: 10 nM test drug, [3H]-spiperone 0.5 nM, human D2L receptor-expressing CHO cell membrane; for inhibition at 0.01 µM: read-out: BINDING INHIBITION RATE (%) D2L 10 nM
In short: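 CHO membranes expressing human D2L incubated 60 min at RT with 0.5 nM [³H]-spiperone in 50 mM Tris-HCl pH 7.6; filtration and scintillation counting. Nonspecific binding with 10 μM spiperone; % binding inhibition at 10 nM test drug.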

human 5-HT2A receptor = biological target: T1, human 5-HT2A receptor (Homo sapiens, UniProt P28223); test: Serotonin 5-HT2A receptor binding assay ([3H]-ketanserin); conditions: 1 nM test drug, [3H]-ketanserin 1 nM, human 5-HT2A receptor-expressing CHO cell membrane; for inhibition at 0.001 µM: read-out: BINDING INHIBITION RATE (%) 5HT2A 1 nM
T1 construct: expressed in transfected cells; host or cells: CHO cells (membrane preparation)
In short: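 Membranes from CHO cells expressing human 5-HT2A incubated 15 min at 37 °C with 1 nM [3H]-ketanserin in 50 mM Tris-HCl pH 7.6, then filtered and counted by scintillation. Nonspecific binding defined with 10 μM MDL-100907; inhibition rate determined at 1 nM or 10 nM test drug.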

human 5-HT6 receptor = biological target: T2, human 5-HT6 receptor (Homo sapiens, UniProt P50406); test: Serotonin 5-HT6 receptor binding assay ([3H]-clozapine); conditions: 100 nM test drug, [3H]-clozapine 2 nM, human 5-HT6 receptor-expressing CHO cell membrane; for inhibition at 0.1 µM: read-out: BINDING INHIBITION RATE (%) 5HT6 100 nM
T2 construct: expressed in transfected cells; host or cells: CHO cells (membrane preparation)
In short: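 Membranes from CHO cells expressing human 5-HT6 were incubated with [3H]-clozapine (2 nM final) for 40 min at room temperature in 50 mM Tris-HCl pH 7.6, 4 mM CaCl2, 0.5 mM EDTA. Bound radioactivity was filtered and counted. Values are % binding inhibition at 100 nM test drug, with nonspecific binding defined by 10 μM SB-258585.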

human α1D receptor = biological target: T3, human α1D receptor (Homo sapiens, UniProt P25100); test: Adrenaline α1D receptor binding assay ([3H]-prazosin); conditions: 100 nM test drug, [3H]-prazosin 0.6 nM, human α1D receptor-expressing CHO cell membrane; for inhibition at 0.1 µM: read-out: BINDING INHIBITION RATE (%) α1D 100 nM
T3 construct: expressed in transfected cells; host or cells: CHO cells (membrane preparation)
T3 sequence (P25100 1-572): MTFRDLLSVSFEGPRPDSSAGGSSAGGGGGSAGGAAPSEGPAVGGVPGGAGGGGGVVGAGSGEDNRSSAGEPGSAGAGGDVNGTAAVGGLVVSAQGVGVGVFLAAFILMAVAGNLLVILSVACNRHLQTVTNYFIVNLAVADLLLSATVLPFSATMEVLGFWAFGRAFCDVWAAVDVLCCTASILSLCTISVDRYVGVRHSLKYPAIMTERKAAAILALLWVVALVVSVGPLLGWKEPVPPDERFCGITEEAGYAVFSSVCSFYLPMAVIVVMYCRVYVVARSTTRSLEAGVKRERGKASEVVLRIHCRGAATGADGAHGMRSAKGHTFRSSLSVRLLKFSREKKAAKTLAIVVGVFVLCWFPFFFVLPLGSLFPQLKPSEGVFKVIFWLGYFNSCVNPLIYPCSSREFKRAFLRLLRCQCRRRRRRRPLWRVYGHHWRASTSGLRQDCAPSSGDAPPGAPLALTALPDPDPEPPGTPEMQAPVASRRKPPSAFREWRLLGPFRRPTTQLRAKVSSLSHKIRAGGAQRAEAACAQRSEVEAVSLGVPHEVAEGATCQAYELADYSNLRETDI
In short: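 Membranes from CHO cells expressing human α1D, incubated 30 min at room temperature with 0.6 nM [3H]-prazosin in 50 mM Tris-HCl pH 7.6, filtered and counted. Nonspecific binding defined with 1 μM prazosin. Test drug at 100 nM, reported as percent inhibition of binding.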

human D2L receptor, sequence (P14416 whole entry): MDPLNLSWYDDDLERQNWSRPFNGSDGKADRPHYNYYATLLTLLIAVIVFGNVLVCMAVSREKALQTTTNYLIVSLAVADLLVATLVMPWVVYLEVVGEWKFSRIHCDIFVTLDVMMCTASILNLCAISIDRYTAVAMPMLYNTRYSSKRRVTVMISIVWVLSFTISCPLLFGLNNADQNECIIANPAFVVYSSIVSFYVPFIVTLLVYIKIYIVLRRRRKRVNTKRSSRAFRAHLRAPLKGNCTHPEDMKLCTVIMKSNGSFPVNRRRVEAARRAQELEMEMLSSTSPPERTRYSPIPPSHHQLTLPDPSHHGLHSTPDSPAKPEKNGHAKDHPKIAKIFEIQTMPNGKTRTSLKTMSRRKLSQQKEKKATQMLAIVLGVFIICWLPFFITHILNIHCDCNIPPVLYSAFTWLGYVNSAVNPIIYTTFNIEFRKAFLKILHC
T2 sequence (P50406 whole entry): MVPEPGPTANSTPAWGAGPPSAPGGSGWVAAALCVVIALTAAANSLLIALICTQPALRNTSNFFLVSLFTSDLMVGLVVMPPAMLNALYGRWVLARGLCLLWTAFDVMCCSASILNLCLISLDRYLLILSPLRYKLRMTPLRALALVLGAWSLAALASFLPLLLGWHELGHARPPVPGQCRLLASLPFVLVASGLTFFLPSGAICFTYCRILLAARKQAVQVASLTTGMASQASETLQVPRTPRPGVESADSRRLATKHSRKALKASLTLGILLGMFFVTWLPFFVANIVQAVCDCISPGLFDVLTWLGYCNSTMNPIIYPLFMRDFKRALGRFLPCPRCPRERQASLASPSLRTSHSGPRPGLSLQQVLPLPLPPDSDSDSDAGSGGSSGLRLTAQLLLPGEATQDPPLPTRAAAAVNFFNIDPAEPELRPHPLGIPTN
T1 sequence (P28223 whole entry): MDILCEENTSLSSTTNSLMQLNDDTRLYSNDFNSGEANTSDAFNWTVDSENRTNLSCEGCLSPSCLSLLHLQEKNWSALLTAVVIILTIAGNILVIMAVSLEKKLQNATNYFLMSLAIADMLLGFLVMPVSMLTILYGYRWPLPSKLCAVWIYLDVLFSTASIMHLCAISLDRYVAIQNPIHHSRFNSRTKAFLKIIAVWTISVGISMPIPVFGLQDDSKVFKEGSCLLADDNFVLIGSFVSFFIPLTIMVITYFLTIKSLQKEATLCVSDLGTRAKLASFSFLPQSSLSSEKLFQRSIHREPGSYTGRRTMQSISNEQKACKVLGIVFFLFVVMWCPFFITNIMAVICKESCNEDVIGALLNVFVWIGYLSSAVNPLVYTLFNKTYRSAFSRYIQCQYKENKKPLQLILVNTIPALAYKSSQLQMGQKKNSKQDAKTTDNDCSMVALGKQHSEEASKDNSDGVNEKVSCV

Molecule | inhibition at 0.01 µM (human D2L receptor) | inhibition at 0.001 µM (human 5-HT2A receptor) | inhibition at 0.1 µM (human 5-HT6 receptor) | inhibition at 0.1 µM (human α1D receptor) | BINDING INHIBITION RATE (%) D2L 10 nM (human D2L receptor) | BINDING INHIBITION RATE (%) 5HT2A 1 nM (human 5-HT2A receptor) | BINDING INHIBITION RATE (%) 5HT6 100 nM (human 5-HT6 receptor) | BINDING INHIBITION RATE (%) α1D 100 nM (human α1D receptor)
Cc1cccc2cc(C(=O)N3CCC[C@H]3CCN3CCC(C(=O)c4ccc(F)cc4)CC3)[nH]c12 [Example 61] | 69% | 46% | 82% | 29% | – | – | – | –
O=C(c1ccc(F)cc1)C1CCN(CC[C@@H]2CCCN2C(=O)c2cc3c(F)cccc3[nH]2)CC1 [Example 62] | 81% | 61% | 87% | 43% | – | – | – | –
O=C(c1ccc(F)cc1)C1CCN(CC[C@@H]2CCCN2C(=O)c2cc3ccc(F)cc3[nH]2)CC1 [Example 159, (S)-(6-Fluoro-1H-indol-2-yl)(2-(2-(4-(4-fluorobenzoyl)piperidin-1-yl)ethyl)pyrrolidin-1-yl)-methanone] | 93% | 78% | 96% | 71% | – | – | – | –
O=C(c1ccc(F)cc1)C1CCN(CC[C@@H]2CCCN2C(=O)c2cc3ccc(OC(F)(F)F)cc3[nH]2)CC1 [Example 160, (S)-(2-(2-(4-(4-Fluorobenzoyl)piperidin-1-yl)ethyl)pyrrolidin-1-yl)(6-(trifluoromethoxy)-1H-indol-2-yl)methanone] | 90% | 72% | 98% | 53% | – | – | – | –
CC(C)c1ccc2cc(C(=O)N3CCC[C@H]3CCN3CCC(C(=O)c4ccc(F)cc4)CC3)[nH]c2c1 [Example 161, (S)-(2-(2-(4-(4-Fluorobenzoyl)piperidin-1-yl)ethyl)pyrrolidin-1-yl)(6-isopropyl-1H-indol-2-yl)methanone] | 49% | 69% | 97% | 66% | – | – | – | –
COc1c(F)ccc2[nH]c(C(=O)N3CCC[C@H]3CCN3CCC(C(=O)c4ccc(F)cc4)CC3)cc12 [Example 162, (S)-(5-Fluoro-4-methoxy-1H-indol-2-yl)(2-(2-(4-(4-fluorobenzoyl)piperidin-1-yl)ethyl)pyrrolidin-1-yl)methanone] | 86% | 84% | 93% | 79% | – | – | – | –
O=C(c1ccc(F)cc1)C1CCN(CC[C@@H]2CCCN2C(=O)c2[nH]c3cc(F)ccc3c2F)CC1 [Example 163, (S)-(3,6-Difluoro-1H-indol-2-yl)(2-(2-(4-(4-fluorobenzoyl)piperidin-1-yl)ethyl)pyrrolidin-1-yl)methanone] | 88% | 75% | 95% | 48% | – | – | – | –
O=C(c1ccc(F)cc1)C1CCN(CC[C@@H]2CCCN2C(=O)c2[nH]c3cc(OC(F)(F)F)ccc3c2F)CC1 [Example 164, (S)-(3-Fluoro-6-(trifluoromethoxy)-1H-indol-2-yl)(2-(2-(4-(4-fluorobenzoyl)piperidin-1-yl)ethyl)pyrrolidin-1-yl)methanone] | 79% | 56% | 99% | 43% | – | – | – | –
O=C(c1ccc(F)cc1)C1CCN(CC[C@@H]2CCCN2C(=O)c2[nH]c3ccccc3c2F)CC1 [Example 165, (S)-(3-Fluoro-1H-indol-2-yl)(2-(2-(4-(4-fluorobenzoyl)piperidin-1-yl)ethyl)pyrrolidin-1-yl)methanone] | 90% | 74% | 90% | 53% | – | – | – | –
(S)-(2-(2-(4-(4-Fluorobenzoyl)piperidin-1-yl)ethyl)pyrrolidin-1-yl)(1-methyl-1H-indol-5-yl)methanone [Example 169] | – | – | – | – | 81% | 47% | 73% | 49%
